Results as given in PubChem BioAssay (NCI).
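1) Cells in 96-well plates. 2) Compound, 48 h, 5 concentrations. 3) Linear interpolation between surrounding doses. 4) Unreached endpoint = highest concentration. Definition used: TGI = concentration required for complete inhibition of growth.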

What was measured:
Assay in all cases: DTP human tumour cell line panel, 48 h
[1] = tested on: SR leukemia
[2] = tested on: SK-MEL-5 melanoma
[3] = tested on: OVCAR-5 ovarian
[4] = tested on: NCI-H522 lung
[5] = tested on: SK-MEL-28 melanoma
[6] = tested on: SN12C renal
[7] = tested on: NCI/ADR-RES ovarian
[8] = tested on: HOP-92 NSCLC
[9] = tested on: T-47D breast
[10] = tested on: MALME-3M melanoma
[11] = tested on: UACC-257 melanoma
[12] = tested on: IGROV1 ovarian
[13] = tested on: UO-31 renal
[14] = tested on: SK-MEL-2 melanoma

SMILES | TGI [1] | TGI [2] | TGI [3] | TGI [4] | TGI [5] | TGI [6] | TGI [7] | TGI [8] | TGI [9] | TGI [10] | TGI [11] | TGI [12] | TGI [13] | TGI [14]
O=Cc1c2c(cc3c1CC1(C3)Cc3cc4c(c(C=O)c3C1)CCCC4)CCCC2 | 22.2 µM | > 31.6 µM | > 31.6 µM | 27.3 µM | > 100 µM | > 31.6 µM | > 31.6 µM | > 31.6 µM | > 31.6 µM | > 31.6 µM | > 31.6 µM | > 31.6 µM | – | –
CC(NC(=O)Cc1ccc(OP(=O)(OCc2ccc([N+](=O)[O-])o2)N(C)CCCCCl)cc1)c1ccc(OCC2CCCCC2)c(C(N)=O)c1 (centres undefined) | 4.38 µM | 2.97 µM | 8.78 µM | 5.18 µM | 3.33 µM | 4.26 µM | 94.3 µM | – | 3.84 µM | 4.42 µM | 3.27 µM | 4.76 µM | 8.45 µM | 5.89 µM
Oc1cc(O)c2c(c1)O[C@H](c1ccc(O)c(O)c1)[C@@H](O)C2 | > 100 µM | > 100 µM | > 100 µM | > 100 µM | > 100 µM | > 100 µM | > 100 µM | > 100 µM | > 100 µM | > 100 µM | > 100 µM | > 100 µM | > 100 µM | > 100 µM
COc1ccccc1C1C2=C(COC2=O)Oc2cc3c(cc21)OCO3 (centres undefined) | > 100 µM | > 100 µM | > 92.4 µM | 8.11 µM | > 76 µM | > 100 µM | > 39.8 µM | 97.7 µM | > 100 µM | > 100 µM | > 100 µM | > 100 µM | > 33.5 µM | 99.7 µM
c1ccc(CN2CCC(=NN3CCCCC3)CC2)cc1 | > 100 µM | > 100 µM | > 100 µM | > 100 µM | > 100 µM | > 100 µM | > 100 µM | > 100 µM | > 100 µM | > 100 µM | > 100 µM | > 100 µM | > 100 µM | > 100 µM
Cc1ccc(Nc2c3c(c(C#N)c4nc5ccccc5n24)CCCC3)cc1 | – | 23.4 µM | 95 µM | 82.4 µM | 55.6 µM | 31.7 µM | 61.9 µM | 76.2 µM | > 100 µM | 77.9 µM | 55 µM | > 100 µM | 65.6 µM | 31.7 µM
N=c1c2sc3nc4ccccc4n3c2ncn1Cc1ccccc1 | > 100 µM | > 100 µM | > 100 µM | > 100 µM | > 100 µM | – | > 100 µM | > 100 µM | > 100 µM | > 100 µM | > 100 µM | > 100 µM | > 100 µM | > 100 µM
N/C(=N\N=C\c1cc2ccccc2s1)c1cnccn1 | > 100 µM | > 100 µM | > 100 µM | > 100 µM | > 100 µM | > 100 µM | > 100 µM | > 100 µM | > 100 µM | – | > 100 µM | > 100 µM | > 100 µM | > 100 µM
Cc1ccc(S(=O)(=O)N(CC(O)COc2ccccc2)c2c(F)c(F)cc(F)c2F)cc1 (centres undefined) | 28.5 µM | 30.8 µM | 76.3 µM | – | 36.8 µM | 49.9 µM | 42 µM | 34.2 µM | 78.3 µM | 64.1 µM | – | – | 41.3 µM | 31.3 µM
Clc1ccc(Nc2ncco2)cc1Cl | > 10 µM | > 10 µM | > 10 µM | > 10 µM | > 10 µM | > 10 µM | > 10 µM | > 10 µM | > 10 µM | > 10 µM | > 10 µM | > 10 µM | > 10 µM | –
CC(=O)C(N1CCCCC1)C(O)(C(F)(F)F)C(F)(F)F (centres undefined) | > 100 µM | > 100 µM | > 100 µM | > 100 µM | > 100 µM | – | > 100 µM | > 100 µM | > 100 µM | > 100 µM | > 100 µM | > 100 µM | > 100 µM | –
C[C@@H]1C[C@H]2OC(=O)[C@@]3(C)CCC[C@@](C)([C@@H]23)[C@@]1(O)CCc1ccoc1 | > 88.9 µM | > 100 µM | > 100 µM | > 100 µM | > 100 µM | > 100 µM | > 100 µM | > 100 µM | > 100 µM | – | > 100 µM | > 100 µM | > 100 µM | > 100 µM
C/C=C/CC(C(=O)OCC)(N(C)C(=O)OC(C)(C)C)S(=O)(=O)c1ccc(C)cc1 (centres undefined) | – | > 100 µM | > 100 µM | > 100 µM | > 100 µM | > 100 µM | > 100 µM | > 100 µM | > 100 µM | > 100 µM | > 100 µM | > 100 µM | > 100 µM | > 100 µM
CC(=O)Nc1ccc(NC(=O)CC(=O)Nc2ccc(NC(C)=O)cc2)cc1 | > 100 µM | > 100 µM | – | > 100 µM | > 100 µM | > 100 µM | > 100 µM | > 100 µM | > 100 µM | > 100 µM | > 100 µM | > 100 µM | > 100 µM | –
CN(C)CCCNC(=O)N/N=C/c1ccc(O)cc1 | > 100 µM | > 100 µM | > 100 µM | > 100 µM | > 100 µM | > 100 µM | > 100 µM | – | > 100 µM | > 100 µM | > 100 µM | > 100 µM | > 100 µM | > 100 µM
CC(=O)O[C@@H]1[C@H](OC2CCCCC2(c2ccccc2)c2ccccc2)O[N+]([O-])=CC12CCCCC2 (some centres undefined) | > 100 µM | 28.2 µM | 29.4 µM | 35.2 µM | 27 µM | 35.4 µM | 30.5 µM | 59.2 µM | 39.4 µM | – | 32 µM | 41.4 µM | 31.3 µM | –
COc1ccccc1-n1cnc2c1NC(C)(C)N=C2C(N)=O | > 100 µM | > 100 µM | > 100 µM | > 100 µM | > 100 µM | > 100 µM | > 100 µM | – | > 100 µM | > 100 µM | > 100 µM | > 100 µM | – | > 100 µM
Cc1nc2cn3c(c2c(=O)[nH]1)CCCCC3 | > 100 µM | > 100 µM | – | – | > 100 µM | – | > 100 µM | > 100 µM | > 100 µM | – | > 100 µM | > 100 µM | > 100 µM | > 100 µM
COC(CNC(=O)CNC(=O)c1ccc(C(F)(F)F)cc1)OC | > 100 µM | > 100 µM | > 100 µM | > 100 µM | – | > 100 µM | > 100 µM | > 100 µM | > 100 µM | > 100 µM | > 100 µM | > 100 µM | > 100 µM | > 100 µM
CC(=O)N1C(C(=O)NN2CCOCC2)CSC1c1ccccc1 (centres undefined) | > 100 µM | > 100 µM | > 100 µM | > 100 µM | – | > 100 µM | > 100 µM | > 100 µM | > 100 µM | > 100 µM | > 100 µM | > 100 µM | > 100 µM | > 100 µM
C=CCn1c(-c2cc(C(C)(C)C)c(O)c(C(C)(C)C)c2)cs/c1=N\C(P(=O)(O)O)P(=O)(O)O | > 100 µM | – | > 100 µM | – | > 100 µM | > 100 µM | > 100 µM | > 100 µM | > 100 µM | > 100 µM | – | > 100 µM | > 100 µM | > 100 µM
CCO/C(O)=C(/C(=N)N1CCOCC1)C(=O)Nc1cccc(C(F)(F)F)c1 | – | – | > 100 µM | > 100 µM | > 100 µM | > 100 µM | > 100 µM | > 100 µM | > 100 µM | > 100 µM | > 100 µM | > 100 µM | – | > 100 µM
O=C1CC(c2ccc(Cl)cc2)C2(C(=O)NC(=S)NC2=O)C(c2ccc(Cl)cc2)C1 (centres undefined) | > 100 µM | 33.1 µM | 47.7 µM | – | 30.6 µM | 40.6 µM | 52 µM | 40.3 µM | 74.1 µM | 52.1 µM | 37.6 µM | – | 48.9 µM | 36.1 µM
CCOC(=O)c1c(N2CCCC2)[nH]c(=O)c(C(c2c(O)c(C(=O)OCC)c(N3CCCC3)[nH]c2=O)C(C)C)c1O | > 100 µM | > 100 µM | > 100 µM | > 100 µM | > 100 µM | > 100 µM | > 100 µM | > 100 µM | > 100 µM | > 100 µM | > 100 µM | – | > 100 µM | –
COC(=O)[C@H](CNC(=O)/C=C/c1ccc(OC(C)=O)c(OC(C)=O)c1)NC(=O)/C=C/c1ccc(OC(C)=O)c(OC(C)=O)c1 | > 100 µM | > 100 µM | > 100 µM | – | > 100 µM | > 100 µM | > 100 µM | > 100 µM | > 100 µM | > 100 µM | > 100 µM | > 100 µM | – | > 100 µM
Cc1cc(C)cc(Nc2nnc3n2S(=O)(=O)c2cc(C)c(Cl)cc2S3)c1 | 13.9 µM | 24.7 µM | > 100 µM | 22.6 µM | > 100 µM | 48.5 µM | 9.26 µM | – | > 100 µM | 13.7 µM | 30.5 µM | 80.6 µM | > 100 µM | 15.8 µM
